Experimental data taken from US10934355B2, “Methods and compositions for the prevention and treatment of surgical adhesions” (The Board of Trustees of the Leland Stanford Junior …, priority 2016, dated 2021).
“Also recorded” adds a separate entry of the source.

How the values were obtained:
Type in all cases: in vivo, mouse
[1] = tested on: adhesion formation in wild type C57BL/6J mice; assay: Adhesion induction (ischemic button) with HIF1A small molecule inhibitor treatment, adhesion scoring; details: for adhesion formation: C57BL/6J mice, cryptotanshinone 200 mg/kg, FM19G11 2 mg/kg, echinomycin 10 or 20 ug/kg, PX12 25 mg/kg, immediately after injury, 4 hours after, then every 24 hours for 7 days, scored after 7 days; for adhesion score in a majority of the treated mice: scale 0-5, PX12 n=5, echinomycin n=15, 7 days after induction
From the text: (§1) Adhesion induction surgeries were done on wild type B6 (C57BL/6J (The Jackson Laboratory) mice aged 6-10 weeks. Mice were anesthetized by inhaled isoflurane until determined unconscious confirmed by toe-pinch test. The abdomen was disinfected with betadine and phosphate buffered saline (PBS). A left mid-clavicular incision was made in the skin running down the length of the mouse. A similar left-mid clavicular incision was made in the peritoneum running down the length of the peritoneum. The peritoneum was gently folded to the right and held down by a hemostat. A single, ischemic button was placed on the right half of the peritoneal wall by clamping a small (−5 mm diameter) piece of peritoneum and ligating the base with a 4-0 silk suture (Ethicon, 683G). Light abrasion on the button (24 times) and on the adjacent liver, cecum, and small and large bowels (7 times) was optionally performed (depending on the desired adhesion severity) with a surgical brush. Light brushing with fewer repetitions was performed to avoid pinpoint bleeding. The peritoneum was closed using 4-0 silk sutures and the skin was stapled closed (EZ Clips, 9 mm, Braintree Scientific Inc). Mice were allowed to recover on a heating pad and injected with 0.05-0.1 mg/kg of buprenorphine. Mice were followed closely and monitored daily for signs of morbidity for 7 days until euthanasia. Adhesed tissues were dissected, scored, and fixed in 2% paraformaldehyde overnight at 4 degrees.
In functional studies we assign a single score for an adhesion, based on the criteria detailed in the text above, taking into consideration both surface area contact and molecular makeup. […] We have observed adhesion areas with high surface area contact (a score of 3 or 4) with little or no collagen or macrophage involvement (F4/80-). Conversely, we have also observed adhesion areas with low surface area contact (a score of 2) with high collagen and macrophage infiltration. In these cases we will score adhesions based on surface area contact or number of organs involved, as we predict this is a more significant indicator of clinical outcome.
Adhesion induction surgeries were performed on 4-8 week old wild type B6 (C57BL/6J (The Jackson Laboratory) as previously described. 200 mg/kg of cryptotanshinone (Sigma Aldrich), 2 mg/kg of FM19G11 (Sigma Aldrich), 10 ug/kg or 20 ug/kg of echinomycin (Sigma Aldrich), or 25 mg/kg of PX12 (Sigma Aldrich) immediately after injury, 4 hours after injury, and every 24 hours subsequently for 7 days.
Adhesions were induced in wild type C57BL/6J mice using the method described above, with different intensity and scope of abrasions to induce a range of adhesion severity. These mice were allowed to recover for seven days before their adhesions were scored.
In our scheme, an adhesion with a score of 0 has no adhesion between two areas, with limited mesothelial thickening on the button (FIG. 3A). The area stains positive for MSLN and fibronectin (FIG. 3A). Mice with an adhesion score of 0 had no signs of morbidity and survived the 7 day recovery period (n=25). An adhesion score of 1 indicated a “string” adhesion, connecting the two adhesed areas with a light fibrous bridge (FIG. 3B). The string and surrounding areas were immunopositive for MSLN and fibronectin (FIG. 3B). Most mice with an adhesion score of 1 had no signs of morbidity and survived the 7 day recovery period (n=11).
All adhesions with scores of 2 or above involve a single direct contact between two tissues. […]

HIF1A = assay: Immunofluorescence staining of mesothelium surrounding buttons after inhibitor treatment; details: 7 days after induction and treatment; control adhesions positive for PDPN, MSLN and HIF1A
Experimental: Immunofluorescence studies were performed on frozen sections. Frozen sections were thawed at room temperature for ten minutes and washed in PBS twice. Slides were blocked in 5% serum for 30 minutes at room temperature. Sections were subsequently stained with primary antibodies against PDPN (1:100, mouse monoclonal, Abcam), MSLN (1:200, rabbit monoclonal, ABBIOTEC), fibronectin (1:100, rabbit monoclonal, Abcam), F4/80 (1:100, rat monoclonal, Abcam), CD31 (1:100, rabbit monoclonal, Abcam), pan-collagen (1:100, rabbit polyclonal, Abcam), WT1 (1:100, rabbit polyclonal, Abcam), CD44 (1:100, rabbit polyclonal, Abcam), HIF1A (1:100, mouse monoclonal), and S100A4 (1:100, rabbit polyclonal, Abcam), overnight at 4 degrees, and washed three times in PBS. Slides were stained were incubated with secondary antibodies conjugated to Alex Fluor 488, 594, or 647 for one to two hours at room temperature. Stains were washed once with PBST and three times with PBS before nuclear staining with Hoechst 33342 (Life Technologies), for two minutes and mounted with Fluoromount G (Southern Biotech).
To explore whether inhibiting the HIF1A pathway in vivo can prevent adhesion formation, we treated mice that had undergone adhesion induction with small molecular inhibitors against HIF1A or its immediate downstream cascade. […] Mice were euthanized after 7 days and their adhesions were imaged and scored.

[2] = tested on: HIF1A and mesothelial target genes in injured mesothelial cells; assay: RNA sequencing of sorted injured mesothelium after echinomycin treatment
Experimental: A modified adhesion induction surgery was done according to previously described procedures on wild type C57BL/6J (The Jackson Laboratory). Two ischemic buttons were placed on each side of the peritoneum and no abrasion of the button or abdominal organs was done. Mice were allowed to recover for 6, 12, or 24 hours and euthanized. Ischemic buttons were dissected by cutting the base and placed in dissociation media (DMEM (Life Technologies, 10565-042), 50 mg/ml collagenase IV (Worthington Biochemical), 20 uM CaCl2). Buttons were homogenized using a single edge blade (Razor Blade Company), and incubated in dissociation media for 30 minutes at 37 C. The subsequent cell suspension was filtered through a 100 um filter and spun and washed with 2% fetal bovine serum (FBS) in PBS. Cells were treated with 1 ml of ACK lysis buffer (Life Technologies) for 5 minutes at 4 C and spun and washed. Cells were blocked with 1% goat serum (Life Technologies) for 10 minutes and stained with anti-PDPN (BioLegend, 8.1.1, 1:100), anti-LYVE-1 (eBioscience, ALY-7, 1:100), anti-CD31 (eBioscience, 390, 1:100), and anti-CD45 (BioLegend, 30-F11, 1:100) for 30 minutes at 4 C. Cells were spun down, filtered, and resuspended in 200 µl of 2% FBS in PBS. Cells were run through a FACSAria (BD Bioscences) and PDPN+LYVE1-CD31-CD45- cells were sorted directly into 750 ul of Trizol LS (Life Technologies).
Total RNA from sorted mesothelial population was isolated using Trizol (ThermoFisher) as per manufacturer's recommendation and was facilitated by addition of linear polyacrylamide (Sigma) as a carrier during RNA precipitation. Purified total RNA was treated with 4 units of RQ1 RNase-free DNase (Promega) at 37° C. for 1 hour to remove trace amounts of genomic DNA. The DNase-treated total RNA was cleaned-up using RNeasy micro kit (QIAGEN). 10-50 ng of total RNA was used as input for cDNA preparation and amplification using Ovation RNA-Seq System V2 (NuGEN). Amplified cDNA was sheared using Covaris S2 (Covaris) using the following settings: total volume […], duty cycle 10%, intensity 5, cycle/burst 100, total time 2 min. The sheared cDNA was cleaned up using Agencourt Ampure XP (Beckman Coulter) to obtain cDNA fragments>=400 base pairs (bp). 500 ng of sheared and size-selected cDNA were used as input for library preparation using NEBNext Ultra DNA Library Prep Kit for Illumina (New England BioLabs) as per manufacturer's recommendations. Resulting libraries (fragment distribution: 300-700 bp; peak 500-550 bp) were sequenced using HiSeq 4000 (Illumina) to obtain 2×150 base pair paired-end reads. The reads obtained were trimmed for base call quality and the presence of adapter sequences using Skewer (ref). High quality reads thus obtained were aligned to mouse genome using OLego (ref) and the levels of expressed mRNAs were estimated using cuffdiff2 (ref) and represented as fragments per kilo-base per million mapped reads (FPKM).
To broadly determine the causative transcriptional changes in injured mesothelial cells downstream of HIF1A inhibition, we treated 10 wild type C57BL/6J mice with (20 ug/kg) of echinomycin prior to and immediately following adhesion induction via placement of four ischemic buttons. Using a similar method as outlined above, we isolated the damaged mesothelium from buttons, sorted and isolated their RNA for sequencing.

[3] = tested on: adhesion formation in mice; assay: Adhesion induction with neutrophil/monocyte modulating treatments, adhesion score (Example 2); details: for adhesion formation (adhesion score), pre-treatment: treated 24 hours prior to adhesion induction
From the text: as §1
Peritoneal washes from similar time points confirmed that increased numbers of neutrophils and macrophages enter the peritoneum.

adhesions in mice = assay: Pre-treatment 3 days prior to adhesion induction surgery, adhesion severity scale 0-5 (Example 3); details: pre-treated 3 days prior to surgery, evaluated 7 days post injury, versus PBS control
From the text: as §1, with “Light abrasion on the button (24 times) and on the adjacent liver, cecum, and small and large bowels (7 times) was optionally performed (depending on the desired adhesion severity) with a surgical brush. Light brushing with fewer repetitions was performed to avoid pinpoint bleeding. The peritoneum was closed using 4-0 silk sutures and the skin was stapled closed (EZ Clips, 9 mm, Braintree Scientific Inc). Mice were allowed to recover on a heating pad and injected with 0.05-0.1 mg/kg of buprenorphine.” left out
Mice were pre-treated with either PLGA, thioglycollate, or PBS control 3 days prior to adhesion induction surgery as described in Example 1. Mice were evaluated 7 days post injury and evaluated on an adhesion severity scale from 0-5 for adhesions forming on the suture site (S) or the button (B). […]

Cc1ccc(C(=O)COC(=O)c2cccc(NC(=O)c3ccc([N+](=O)[O-])cc3[N+](=O)[O-])c2)cc1 [FM19G11]
adhesion formation [1]: reduce adhesion formation

CCC(C)SSc1ncc[nH]1 (stereo not shown) [PX12]
adhesion formation [1]: significantly reduced; also recorded: dramatic decrease in adhesion formation and frequency; also recorded: significant decreases in adhesion formation; also recorded: reduce adhesion formation
adhesion score in a majority of the treated mice [1]: 0
HIF1A immunofluorescence staining of mesothelium surrounding the buttons / adhesions (HIF1A): stained with only MSLN and PDPN

CS[C@H]1SC[C@H]2C(=O)N(C)[C@@H](C(C)C)C(=O)OC[C@@H](NC(=O)c3cnc4ccccc4n3)C(=O)N[C@@H](C)C(=O)N(C)[C@@H]1C(=O)N(C)[C@@H](C(C)C)C(=O)OC[C@@H](NC(=O)c1cnc3ccccc3n1)C(=O)N[C@@H](C)C(=O)N2C [echinomycin]
ITGAM, ITGB1, and ITGB2 gene expression after HIF1A inhibition ([2]; 20 ug/kg echinomycin): little difference in gene expression
PDPN, MSLN, and S100A4 expression after treatment ([2]; 20 ug/kg echinomycin): increased in expression
UPK1B and WT1 expression levels after treatment ([2]; 20 ug/kg echinomycin): dropped significantly
number of genes normally upregulated along the 24 hour time course that were decreased with HIF1A inhibition ([2]; 20 ug/kg echinomycin): over 200 genes
number of genes with little or decreased expression during the 24 hour time course that were upregulated by HIF1A inhibition ([2]; 20 ug/kg echinomycin): over 600 genes
expression of known HIF1A targets VEGFb and transferrin (TRF) ([2]; 20 ug/kg echinomycin prior to and immediately following adhesion induction): downregulated
adhesion formation [1]: significantly reduced; also recorded: dramatic decrease in adhesion formation and frequency; also recorded: significant decreases in adhesion formation; also recorded: significantly reduces the formation of adhesions
adhesion score in a majority of the treated mice [1]: 0
HIF1A immunofluorescence staining of mesothelium surrounding the buttons / adhesions (HIF1A): stained with only MSLN and PDPN

Catalase
adhesion formation (adhesion score), pre-treatment [3]: worsens adhesion formation

MCP-1: monocyte chemoattractant protein-1, a known monocyte chemoattractant
side effects in animals ([3]; MCP-1 administration (e.g., intraperitoneally) in animal models): little or no side effects
adhesion formation (adhesion score), post-surgery treatment ([3]; treated for three days following adhesion induction surgery): diminish adhesion formation; also recorded: substantial reduction in adhesion grades

thioglycollate
severity of adhesions at the button (B) (adhesions in mice): significantly reduced severity of adhesions
severity of adhesions at the suture site (S) (adhesions in mice): significantly reduced severity of adhesions
adhesion formation (adhesion score), pre-treatment [3]: diminished adhesions
